Data from the supplement of paper PMC7017272.
± gives the standard deviation of the averaged measurements.

How the values were obtained:
Conditions in all cases: treatment time: 3 days
UT-SCC-42B [1] = assay: drug sensitivity score (DSS); higher = more sensitive; extreme values may be limits of the assay
Outline: (§1)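 HPV-negative HNSCC cell lines were seeded at 500 cells/well in 384-well plates on plastic, on Matrigel- or Myogel-coated wells (500 µg/mL), or embedded in Matrigel or Myogel plus rat collagen I. Compounds were given at five 10-fold concentrations for 3 days, and viability was read by CellTiter-Glo 2.0 luminescence. Signals were normalised to vehicle (0.1% DMSO) and cell-killing control wells. Percent-inhibition dose–response curves were fitted in the FIMM pipeline to derive IC50, maximal inhibition and drug sensitivity score.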

UT-SCC-106A = assay: as above
Outline: as §1

UT-SCC-28 = assay: as above
Outline: as §1

UT-SCC-8 = assay: as above
Outline: as §1

UT-SCC-44 = assay: as above
Outline: as §1

UT-SCC-40 = assay: as above
Outline: as §1

UT-SCC-14 [2] = assay: as above
Outline: as §1

UT-SCC-73 = assay: as above
Outline: as §1

UT-SCC-42A = assay: as above
Outline: as §1

UT-SCC-81 [3] = assay: as above
Outline: as §1

UT-SCC-24B = assay: as above
Outline: as §1

UT-SCC-24A [4] = assay: maximal % inhibition of viability relative to DMSO; higher = stronger effect
Protocol: (§2)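 HNSCC cell lines (500 cells/well, 384-well) were cultured on plastic, on top of (2D) or embedded (3D) in Matrigel or human leiomyoma matrix Myogel (500 ug/mL; Myogel 3D mixed with rat collagen I). Cells were treated for 3 days with 5 ten-fold concentrations of each drug, and viability was read by CellTiter-Glo. Viability was normalised to DMSO (0% inhibition) and 100 uM benzethonium chloride (100% inhibition) controls and fitted with the FIMM DSRT pipeline to give IC50 (nM), maximal % inhibition and the drug sensitivity score (DSS). Suffixes _1/_2/_3 on drug names are replicates.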

UT-SCC-24A [5] = assay: drug sensitivity score (DSS); higher = more sensitive
Protocol: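 HNSCC cell lines (500 cells/well, 384-well) were cultured on plastic, on top of (2D) or embedded (3D) in Matrigel or human leiomyoma matrix Myogel (500 ug/mL; Myogel 3D mixed with rat collagen I). Cells were treated for 3 days with 5 ten-fold concentrations of each drug, and viability was read by CellTiter-Glo. Suffixes _1/_2/_3 on drug names are replicates.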

UT-SCC-24A [6] = assay: relative IC50 (midpoint of the fitted curve; maximal inhibition may be below 50%); higher = less potent
Protocol: as §2

UT-SCC-42B [7] = assay: maximal % inhibition of viability relative to DMSO; higher = stronger effect
Protocol: as §2, with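 “DMSO” for “DMSO (0% inhibition)”, “and” for “and 100 uM”, “chloride” for “chloride (100% inhibition)”, “DSS.” for “the drug sensitivity score (DSS).”, “_1/_2/_3” for “_1/_2/_3 on drug names”, “replicates. Only inhibition-mode (IC50) fits are kept.” for “replicates.”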

UT-SCC-14 [8] = assay: as above
Protocol: as §2, with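 “DMSO” for “DMSO (0% inhibition)”, “and” for “and 100 uM”, “chloride” for “chloride (100% inhibition)”, “DSS.” for “the drug sensitivity score (DSS).”, “_1/_2/_3” for “_1/_2/_3 on drug names”, “replicates. Only inhibition-mode (IC50) fits are kept.” for “replicates.”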

UT-SCC-81 [9] = assay: as above
Protocol: as §2, with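 “DMSO” for “DMSO (0% inhibition)”, “and” for “and 100 uM”, “chloride” for “chloride (100% inhibition)”, “DSS.” for “the drug sensitivity score (DSS).”, “_1/_2/_3” for “_1/_2/_3 on drug names”, “replicates. Only inhibition-mode (IC50) fits are kept.” for “replicates.”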

[10] = culture condition: embedded in Matrigel
[11] = culture condition: on top of Matrigel
[12] = culture condition: on top of Myogel
[13] = culture condition: plastic 2D (no matrix)
[14] = culture condition: embedded in Myogel + collagen I

SMILES: COc1cc(F)c(F)c(Nc2ccc(I)cc2F)c1NS(=O)(=O)C1(C[C@H](O)CO)CC1 [Refametinib]
- drug sensitivity score (UT-SCC-42B [1]; [10]): 25.5 ± 1.9 DSS
- drug sensitivity score (UT-SCC-42B [1]; [11]): 15.7 ± 1.7 DSS
- drug sensitivity score (UT-SCC-42B [1]; [12]): 5.27 ± 0.5 DSS
- drug sensitivity score (UT-SCC-42B [1]; [13]): 8.27 ± 1.1 DSS
- drug sensitivity score (UT-SCC-106A; [10]): 17.8 ± 1.8 DSS
- drug sensitivity score (UT-SCC-106A; [14]): 3.97 ± 0.67 DSS
- drug sensitivity score (UT-SCC-106A; [11]): 21.6 ± 1.2 DSS
- drug sensitivity score (UT-SCC-106A; [12]): 5.3 ± 0.82 DSS
- drug sensitivity score (UT-SCC-106A; [13]): 20.4 ± 0.42 DSS
- drug sensitivity score (UT-SCC-28; [10]): 9.8 ± 1.8 DSS
- drug sensitivity score (UT-SCC-28; [14]): 4.67 ± 4.2 DSS
- drug sensitivity score (UT-SCC-28; [11]): 13.2 ± 2.8 DSS
- drug sensitivity score (UT-SCC-28; [13]): 4.4 ± 2.4 DSS
- drug sensitivity score (UT-SCC-8; [10]): 15.7 ± 1.7 DSS
- drug sensitivity score (UT-SCC-8; [14]): 6.63 ± 3.1 DSS
- drug sensitivity score (UT-SCC-8; [11]): 12.5 ± 1.5 DSS
- drug sensitivity score (UT-SCC-8; [12]): 10.3 ± 2 DSS
- drug sensitivity score (UT-SCC-8; [13]): 10.9 ± 2.8 DSS
- drug sensitivity score (UT-SCC-44; [10]): 23.7 ± 1.5 DSS
- drug sensitivity score (UT-SCC-44; [14]): 8.1 ± 2.3 DSS
- drug sensitivity score (UT-SCC-44; [11]): 18.2 ± 2.5 DSS
- drug sensitivity score (UT-SCC-44; [12]): 7.4 ± 1.2 DSS
- drug sensitivity score (UT-SCC-44; [13]): 15.3 ± 0.64 DSS
- drug sensitivity score (UT-SCC-40; [10]): 26.9 ± 1.2 DSS
- drug sensitivity score (UT-SCC-40; [14]): 16.8 ± 2 DSS
- drug sensitivity score (UT-SCC-40; [11]): 22.5 ± 1.8 DSS
- drug sensitivity score (UT-SCC-40; [12]): 14.3 ± 1.1 DSS
- drug sensitivity score (UT-SCC-40; [13]): 14.1 ± 1.1 DSS
- drug sensitivity score (UT-SCC-14 [2]; [10]): 13.5 ± 4.8 DSS
- drug sensitivity score (UT-SCC-14 [2]; [14]): 9.87 ± 1.7 DSS
- drug sensitivity score (UT-SCC-14 [2]; [11]): 10.9 ± 3.1 DSS
- drug sensitivity score (UT-SCC-14 [2]; [12]): 8.53 ± 0.47 DSS
- drug sensitivity score (UT-SCC-14 [2]; [13]): 5.8 ± 2.8 DSS
- drug sensitivity score (UT-SCC-73; [10]): 25 ± 1.3 DSS
- drug sensitivity score (UT-SCC-73; [14]): 16 ± 3.4 DSS
- drug sensitivity score (UT-SCC-73; [11]): 24 ± 0.8 DSS
- drug sensitivity score (UT-SCC-73; [12]): 15.1 ± 1.1 DSS
- drug sensitivity score (UT-SCC-73; [13]): 20 ± 1.4 DSS
- drug sensitivity score (UT-SCC-42A; [10]): 18 ± 1.1 DSS
- drug sensitivity score (UT-SCC-42A; [14]): 8.7 ± 1.7 DSS
- drug sensitivity score (UT-SCC-42A; [11]): 19.2 ± 0.8 DSS
- drug sensitivity score (UT-SCC-42A; [12]): 11.5 ± 1.4 DSS
- drug sensitivity score (UT-SCC-42A; [13]): 15.3 ± 0.1 DSS
- drug sensitivity score (UT-SCC-81 [3]; [10]): 29.8 ± 2 DSS
- drug sensitivity score (UT-SCC-81 [3]; [14]): 5.87 ± 0.35 DSS
- drug sensitivity score (UT-SCC-81 [3]; [11]): 21.1 ± 1.4 DSS
- drug sensitivity score (UT-SCC-81 [3]; [12]): 5.53 ± 1.2 DSS
- drug sensitivity score (UT-SCC-81 [3]; [13]): 8.8 ± 0.96 DSS
- drug sensitivity score (UT-SCC-24B; [10]): 12.4 ± 0.7 DSS
- drug sensitivity score (UT-SCC-24B; [14]): 10.4 ± 1.8 DSS
- drug sensitivity score (UT-SCC-24B; [11]): 11.8 ± 0.98 DSS
- drug sensitivity score (UT-SCC-24B; [12]): 6.87 ± 1 DSS
- drug sensitivity score (UT-SCC-24B; [13]): 16.4 ± 2.1 DSS
- maximal % inhibition of viability (UT-SCC-24A [4]; [10]): 84.4 ± 1.8%
- maximal % inhibition of viability (UT-SCC-24A [4]; [14]): 73.9 ± 0.81%
- maximal % inhibition of viability (UT-SCC-24A [4]; [11]): 80.4 ± 2.4%
- maximal % inhibition of viability (UT-SCC-24A [4]; [12]): 59.7 ± 7.4%
- maximal % inhibition of viability (UT-SCC-24A [4]; [13]): 75.4 ± 3.4%
- drug sensitivity score (UT-SCC-24A [5]; [10]): 34.3 ± 1.1 DSS
- drug sensitivity score (UT-SCC-24A [5]; [14]): 17.3 ± 2.2 DSS
- drug sensitivity score (UT-SCC-24A [5]; [11]): 29.2 ± 1.3 DSS
- drug sensitivity score (UT-SCC-24A [5]; [12]): 13 ± 1.6 DSS
- drug sensitivity score (UT-SCC-24A [5]; [13]): 26.7 ± 0.62 DSS
- relative IC50 (UT-SCC-24A [6]; [10]): 3.14 nM
- relative IC50 (UT-SCC-24A [6]; [11]): 8.76 nM
- relative IC50 (UT-SCC-24A [6]; [13]): 9.97 nM
- maximal % inhibition of viability (UT-SCC-42B [7]; [10]): 79.1 ± 7.6%
- maximal % inhibition of viability (UT-SCC-42B [7]; [11]): 64.1 ± 4.8%
- maximal % inhibition of viability (UT-SCC-42B [7]; [12]): 46.5 ± 1.5%
- maximal % inhibition of viability (UT-SCC-42B [7]; [13]): 47.5 ± 2.6%
- maximal % inhibition of viability (UT-SCC-14 [8]; [10]): 62.5 ± 5.1%
- maximal % inhibition of viability (UT-SCC-14 [8]; [14]): 57 ± 5.9%
- maximal % inhibition of viability (UT-SCC-14 [8]; [11]): 52.9 ± 9.5%
- maximal % inhibition of viability (UT-SCC-14 [8]; [12]): 52.2 ± 5.8%
- maximal % inhibition of viability (UT-SCC-14 [8]; [13]): 47.7 ± 7.5%
- maximal % inhibition of viability (UT-SCC-81 [9]; [10]): 87.7 ± 0.46%
- maximal % inhibition of viability (UT-SCC-81 [9]; [14]): 50.7 ± 1.9%
- maximal % inhibition of viability (UT-SCC-81 [9]; [11]): 82.7 ± 0.99%
- maximal % inhibition of viability (UT-SCC-81 [9]; [12]): 52 ± 3.4%
- maximal % inhibition of viability (UT-SCC-81 [9]; [13]): 73.1 ± 2.5%
